{"source": "paper PMC4186430", "about": "“Modeling of age-dependent amyloid accumulation and γ-secretase inhibition of soluble and insoluble Aβ in a transgenic mouse model of amyloid deposition” (Pharmacology Research & Perspectives, 2013)", "key": {"soluble Aβ40": {"tested_on": "soluble Aβ40", "experiment": "Soluble (DEA) brain Aβ40 levels in Tg2576 mice after MRK-560, ELISA", "format": "in vivo, Tg2576 transgenic mice", "excerpt": "(§1) C57BL/6 female mice (Harlan Laboratories, Horst, The Netherlands), Tg2576 transgenic female mice (Taconics, Georgetown, NY), overexpressing human APP with the Swedish mutation (Hsiao et al. [1996]), and Tg2576 wild-type littermates were used in the experiments. The C57BL/6 and wild-type littermates were only used for pharmacokinetic PK sampling and analysis. The housing environment was humidity- and temperature-controlled with a constant 12-h light/dark cycle. The animals were kept in conventional housing (5–10 mice per cage) and had access to standard rodent chow and tap water ad libitum. The transgenic mice were aged at the local AstraZeneca (AZ) animal facilities. On the day of study, the mice were weighed. MRK-560 (synthesized in-house; AZ) or vehicle was administered by oral gavage. Three types of vehicles were used: (1) 1% MCC/NaCMC (Microcrystalline Cellulose/Sodiumcarboxymethyl Cellulose) +0.6% lipoid S100, (2) 20% HPβCD in 0.1 mol/L Meglumine, and (3) 40% HPβCD in 0.3 mol/L Meglumine. Observations of the animals’ health were made throughout all the experiments. Data from 23 MRK-560 studies were used in this analysis and details of all studies can be found in Table 1. For the AP analysis, data from vehicle and untreated Tg2576 mice from 48 additional (i.e., non-MRK-560) in-house studies were used. The additional dataset consisted of Aβ levels measured in Tg2576 mice of various ages, between 3.5 and 26 months at termination. Details of those data can be found in Appelkvist et al. ([2011]). In total, data from 71 preclinical studies were used.\n(§2) After blood sampling, mice were sacrificed by decapitation followed by brain samples collection. Cerebellum and olfactory bulbs were removed and the forebrain was divided into left and right hemispheres, weighed, and snap frozen.\n(§3) Left hemisphere of the cerebrum was sequentially extracted by diethylamine (DEA) followed by formic acid (FA) to obtain soluble and insoluble fractions of Aβ species, respectively. In short, brain tissue was sonicated in 1:18 (w/v) 0.2% DEA and 50 mmol/L NaCl, pH 11.6. After centrifugation (133,000g, 4°C, 1 h), the supernatant (soluble Aβ) was recovered, neutralized to a pH of 8.0 using 2 mol/L Tris-HCl, and immediately frozen to -70°C. The remaining pellet was sonicated in 1:18 (w/v) 70% FA. Homogenates were centrifuged at +4°C for 1 h at 133,000g. Recovered supernatants (insoluble Aβ) were neutralized to pH 7.5 with 1 mol/L Tris at 1:20 (w/v) dilutions, frozen on dry ice, and stored at −70°C until analysis.\n(§4) Amyloid beta (Aβ40) and Aβ42 concentrations were measured in plasma, in soluble (DEA), and insoluble (FA) brain fractions using commercial sandwich ELISA kits (KHB3482 from Invitrogen, Carlsbad, CA, and RUO80177 from Innogenetics, Gent, Belgium). To compensate for matrix effects, plasma or brain homogenates from non-transgenic mice were used for preparation of standard curves. The lower and higher limits of quantification (LLOQ and HLOQ) were determined for each immunoassay plate based on the lowest and highest standard point, respectively. The coefficient of variation was less than20% and the accuracy was between 80% and 120%.\n(§5) Statistical comparisons of the vehicle and MRK-560 treatment data were made by unpaired t-tests. The level of significance was set at P < 0.05. All analyses were performed using GraphPad Prism (GraphPad Prism Software Inc., San Diego, CA) and results were reported as mean ± SEM."}, "insoluble Aβ40": {"tested_on": "insoluble Aβ40", "experiment": "Insoluble (FA) brain Aβ40 levels in Tg2576 mice after MRK-560, ELISA", "format": "in vivo, Tg2576 transgenic mice", "excerpt": "as §1, §2, §3, §4, §5"}, "total Aβ40": {"tested_on": "total Aβ40", "set-up": "method as in Best et al. [2007]", "conditions": "12-month-old Tg2576 mice; ref Best et al. [2007]; cited from earlier work"}, "[1]": {"conditions": "study 8, Tg2576, 24 weeks at start, 0.5 μmol/kg p.o., 30 days, 3 h since last dosing"}, "[2]": {"conditions": "study 8, Tg2576, 24 weeks at start, 6 μmol/kg p.o., 30 days, 3 h since last dosing, P < 0.05"}, "[3]": {"conditions": "study 9, Tg2576, 24 weeks at start, 0.5 μmol/kg p.o., 94 days, 3 h since last dosing"}, "[4]": {"conditions": "study 9, Tg2576, 24 weeks at start, 6 μmol/kg p.o., 94 days, 3 h since last dosing"}, "[5]": {"conditions": "study 10, Tg2576, 24 weeks at start, 1 μmol/kg p.o., 29 days, 3 h since last dosing, P < 0.05"}, "[6]": {"conditions": "study 10, Tg2576, 24 weeks at start, 3 μmol/kg p.o., 29 days, 3 h since last dosing, P < 0.05"}, "[7]": {"conditions": "study 10, Tg2576, 24 weeks at start, 6 μmol/kg p.o., 29 days, 3 h since last dosing, P < 0.05"}, "[8]": {"conditions": "study 11, Tg2576, 24 weeks at start, 6 μmol/kg p.o., 30 days, 3 h since last dosing, P < 0.05"}, "[9]": {"conditions": "study 17, Tg2576, 68 weeks at start, 6 μmol/kg p.o., 4 days, 3 h since last dosing"}, "[10]": {"conditions": "study 22, Tg2576, 24–28 weeks at start, 30 μmol/kg p.o., 45 days, 4.5 h since last dosing, P < 0.05"}, "[11]": {"conditions": "study 23, Tg2576, 37–40 weeks at start, 30 μmol/kg p.o., 28 days, 4.5 h since last dosing, P < 0.05"}}, "note": "Marks after values point to notes of the source that are not given here.", "data": [{"smiles": "O=S(=O)(NC1CCC(c2cc(F)ccc2F)(S(=O)(=O)c2ccc(Cl)cc2)CC1)C(F)(F)F", "note": "(stereo not drawn) [MRK-560, N-[cis-4-[(4-chlorophenyl)-sulfonyl]-4-(2,5-difluorophenyl)cyclohexyl]-1,1,1-trifluoromethanesulfonamide]", "values": [{"measurement": "decrease from baseline in soluble Aβ40 levels", "setting": "soluble Aβ40; 70 μmol/kg single dose, young mice, 6 h after dosing", "result": 74, "unit": "%"}, {"measurement": "Effect on soluble Aβ40", "setting": "soluble Aβ40; study 7, Tg2576, 20 weeks at start, 70 μmol/kg p.o., 4 days, 3 h since last dosing, P < 0.05", "result": "−72 ^* %"}, {"measurement": "Effect on soluble Aβ40", "setting": "soluble Aβ40; [1]", "result": "−6", "unit": "%"}, {"measurement": "Effect on soluble Aβ40", "setting": "soluble Aβ40; [2]", "result": "−45.6 ^* %"}, {"measurement": "Effect on soluble Aβ40", "setting": "soluble Aβ40; [3]", "result": "−17", "unit": "%"}, {"measurement": "Effect on soluble Aβ40", "setting": "soluble Aβ40; [4]", "result": "−28", "unit": "%"}, {"measurement": "Effect on soluble Aβ40", "setting": "soluble Aβ40; [5]", "result": "−26 ^* %"}, {"measurement": "Effect on soluble Aβ40", "setting": "soluble Aβ40; [6]", "result": "−41 ^* %"}, {"measurement": "Effect on soluble Aβ40", "setting": "soluble Aβ40; [7]", "result": "−47 ^* %"}, {"measurement": "Effect on soluble Aβ40", "setting": "soluble Aβ40; [8]", "result": "−40 ^* %"}, {"measurement": "Effect on soluble Aβ40", "setting": "soluble Aβ40; study 12, Tg2576, 25 weeks at start, 70 μmol/kg p.o., 1 day, 3 h since last dosing, P < 0.05", "result": "−76 ^* %"}, {"measurement": "Effect on soluble Aβ40", "setting": "soluble Aβ40; study 13, Tg2576, 25 weeks at start, 1 μmol/kg p.o., 4 days, 3 h since last dosing, P < 0.05", "result": "−41 ^* %"}, {"measurement": "Effect on soluble Aβ40", "setting": "soluble Aβ40; study 13, Tg2576, 25 weeks at start, 3 μmol/kg p.o., 4 days, 3 h since last dosing, P < 0.05", "result": "−56 ^* %"}, {"measurement": "Effect on soluble Aβ40", "setting": "soluble Aβ40; study 13, Tg2576, 25 weeks at start, 7.5 μmol/kg p.o., 4 days, 3 h since last dosing, P < 0.05", "result": "−69 ^* %"}, {"measurement": "Effect on soluble Aβ40", "setting": "soluble Aβ40; study 14, Tg2576, 25 weeks at start, 70 μmol/kg p.o., 1 day, samples 3, 6, 24, 48, 120 h (text: 74% at 6 h), P < 0.05", "result": "−74 ^* %"}, {"measurement": "Effect on soluble Aβ40", "setting": "soluble Aβ40; study 15, Tg2576, 36 weeks at start, 6 μmol/kg p.o., vehicle 3, 8 days, 3 h since last dosing, P < 0.05", "result": "−50 ^* %"}, {"measurement": "Effect on soluble Aβ40", "setting": "soluble Aβ40; study 16, Tg2576, 60 weeks at start, 6 μmol/kg p.o., 4 days, 3 h since last dosing", "result": "−17", "unit": "%"}, {"measurement": "Effect on soluble Aβ40", "setting": "soluble Aβ40; [9]", "result": "−6.3", "unit": "%"}, {"measurement": "Effect on soluble Aβ40", "setting": "soluble Aβ40; study 18, Tg2576, 81–89 weeks at start, 70 μmol/kg p.o., 1 day, samples 6, 24, 48, 96 h, time of this value not given", "result": 8, "unit": "%"}, {"measurement": "Effect on soluble Aβ40", "setting": "soluble Aβ40; study 19, Tg2576, 32 weeks at start, 30 μmol/kg p.o., 4 days, 4.5 h since last dosing, P < 0.05", "result": "−55 ^* %"}, {"measurement": "Effect on soluble Aβ40", "setting": "soluble Aβ40; study 20, Tg2576, 32 weeks at start, 30 μmol/kg p.o., 21 days, 4.5 h since last dosing, P < 0.05", "result": "−70 ^* %"}, {"measurement": "Effect on soluble Aβ40", "setting": "soluble Aβ40; study 21, Tg2576, 36 weeks at start, 6 μmol/kg p.o., vehicle 3, 8 days, 3 h since last dosing, P < 0.05", "result": "−63 ^* %"}, {"measurement": "Effect on soluble Aβ40", "setting": "soluble Aβ40; [10]", "result": "−57 ^* %"}, {"measurement": "Effect on soluble Aβ40", "setting": "soluble Aβ40; [11]", "result": "−56 ^* %"}, {"measurement": "Effect on insoluble Aβ40", "setting": "insoluble Aβ40; [1]", "result": "−8", "unit": "%"}, {"measurement": "Effect on insoluble Aβ40", "setting": "insoluble Aβ40; [2]", "result": "−57 ^* %"}, {"measurement": "Effect on insoluble Aβ40", "setting": "insoluble Aβ40; [3]", "result": 3, "unit": "%"}, {"measurement": "Effect on insoluble Aβ40", "setting": "insoluble Aβ40; [4]", "result": 32, "unit": "%"}, {"measurement": "Effect on insoluble Aβ40", "setting": "insoluble Aβ40; [5]", "result": "−40 ^* %"}, {"measurement": "Effect on insoluble Aβ40", "setting": "insoluble Aβ40; [6]", "result": "−42 ^* %"}, {"measurement": "Effect on insoluble Aβ40", "setting": "insoluble Aβ40; [7]", "result": "−69 ^* %"}, {"measurement": "Effect on insoluble Aβ40", "setting": "insoluble Aβ40; [8]", "result": "−31 ^* %"}, {"measurement": "Effect on insoluble Aβ40", "setting": "insoluble Aβ40; study 15, Tg2576, 36 weeks at start, 6 μmol/kg p.o., vehicle 3, 8 days, 3 h since last dosing", "result": 2, "unit": "%"}, {"measurement": "Effect on insoluble Aβ40", "setting": "insoluble Aβ40; [9]", "result": "−7.6", "unit": "%"}, {"measurement": "Effect on insoluble Aβ40", "setting": "insoluble Aβ40; study 20, Tg2576, 32 weeks at start, 30 μmol/kg p.o., 21 days, 4.5 h since last dosing", "result": "−70", "unit": "%"}, {"measurement": "Effect on insoluble Aβ40", "setting": "insoluble Aβ40; study 21, Tg2576, 36 weeks at start, 6 μmol/kg p.o., vehicle 3, 8 days, 3 h since last dosing", "result": "−30", "unit": "%"}, {"measurement": "Effect on insoluble Aβ40", "setting": "insoluble Aβ40; [10]", "result": "−57 ^* %"}, {"measurement": "Effect on insoluble Aβ40", "setting": "insoluble Aβ40; [11]", "result": "−67 ^* %"}, {"measurement": "decrease in total Aβ40 levels", "setting": "total Aβ40", "result": 43, "unit": "%"}]}]}
